Test results as given in PMC4730278, “In Vivo Anti-Tumor Activity and Toxicological Evaluations of Perillaldehyde 8,9-Epoxide, a Derivative of Perillyl Alcohol” (International Journal of Molecular Sciences, 2016).

How the values were obtained:
[1] = tested on: sarcoma 180 tumor cells (S-180); test: In vivo antitumor activity assay, sarcoma 180 tumor growth in mice; design: species or system Swiss mice; details: 25 mg/kg/day i.p., 7 consecutive days
Procedure: Sarcoma 180 (S-180) tumor cells, were obtained through at the Federal University of Ceará, Brazil and maintained in the abdominal cavities of Swiss mice in their ascitic form by ten days.
The effect on tumor growth in vivo was assessed using S-180 ascites tumor cells, according standard protocol. Ten-day-old S-180 ascites tumor cells (2 × 10^6 cells per 0.5 mL) were inoculated subcutaneously into the right axillary region of animals. After 24 h, the animals were separated into 5 groups (n = 10 mice/group) and subjected to intraperitoneal (i.p.) treatment for 7 consecutive days (once a day). Group 1 consisted of animals treated by intraperitoneal (i.p.) administration of negative control—5% Dimethyl sulfoxide (DMSO); Group 2 consisted of animals treated by i.p. administration of positive control—5-fluorouracil 25 mg/kg/day (5-FU; purity > 99%; Sigma Chemical Co., St. Louis, MO, USA); Group 3 consisted of animals treated by i.p. administration of perillaldehyde 8,9-epoxide at 100 mg/kg/day; Group 4 consisted of animals treated by i.p. administration of perillaldehyde 8,9-epoxide at 200 mg/kg/day; Group 5 consisted of animals treated by i.p. administration of perillyl alcohol at 100 mg/kg/day; Group 6 consisted of animals treated by i.p. administration of perillyl alcohol at 200 mg/kg/day. At 24 h from the last day of treatment, under 1.5% isoflurane inhalation anesthesia, the mice were euthanized, and the tumors were weighed. The inhibition ratio of tumor growth (%) was calculated by the following equation: (%) = [(NC − TG)/NC] × 100, where NC is the average tumor weight of the negative control group and TG is the average tumor weight of the treated group.

[2] = Body and organ weights, healthy mice; format: in vivo, Swiss mice; details: 25 mg/kg/day i.p., 7 days
Procedure: (§1) Body weights (n = 10 mice/group) were determined at the first and last days of treatment. Organ weight alterations (n = 10 mice/group), and hematological and biochemical analysis (n = 5 mice/group) were performed on the last day of experimentation. All systemic toxicological analyses were also performed with 4 healthy animal groups, without the inoculation of S-180, (n = 5 mice/group) treated with 5% DMSO (i.p.), 5-FU 25 mg/Kg/day (i.p.), perillaldehyde 8,9-epoxide 100 mg/kg/day (i.p.) and perillaldehyde 8,9-epoxide 200 mg/kg/day for consecutive 7 days.
(§2) Twenty four hours after the seventh treatment day, blood samples of the animals were collected (retro-orbital plexus) with anesthetized mice (1.5%, isoflurane). Immediately after blood collection the animals were euthanized, and their organs (liver, spleen and kidneys) were removed and weighed. The wet mass of each organ was expressed as grams per 100 grams of body mass and compared to the negative control group.

[3] = Body and organ weights, mice transplanted with S-180 tumor cells; format: in vivo, Swiss mice; details: mice with tumor S-180, 25 mg/kg/day i.p., 7 days
Procedure: as §1, §2

[4] = Biochemical parameters in blood, healthy mice; format: in vivo, Swiss mice; details: 25 mg/kg/day i.p., 7 days
Procedure: as §1, §2
(§3) For evaluation of the effect of perillaldehyde 8,9-epoxide on the biochemical parameters aspartate aminotransferase (AST) and alanine aminotransferase (ALT) enzymatic to investigate liver function alterations, creatinine and urea were measured as renal function parameters. For this test, blood samples of the animals were collected without anticoagulant, centrifuged for 10 min at 3500 rpm and 25 °C to obtain […].
(§4) The Clinical Chemistry® kits (Abbott Architect; C8000; Abbott Laboratories, Wiesbaden, Germany) were used for biochemical evaluation of serum samples.

[5] = Biochemical parameters in blood, mice with S-180 tumor cells; format: in vivo, Swiss mice; details: mice with S-180 tumor cells, 25 mg/kg/day i.p., 7 days
Procedure: as §1, §2, §3, §4

[6] = Hematological parameters in blood, healthy mice; format: in vivo, Swiss mice; details: 25 mg/kg/day i.p., 7 days
Procedure: as §1, §2
(§5) For hematological analyses, an aliquot of blood from each animal was placed in ethylene diamine tetracetic acid (EDTA). Hematological parameters, including the total as well as differential counts of leukocytes, including eosinophils, lymphocytes, neutrophils and monocytes determined by standard manual procedures using optical light microscopy.

[7] = Hematological parameters in blood, mice with S-180 tumor; format: in vivo, Swiss mice; details: mice with S-180 tumor, 25 mg/kg/day i.p., 7 days
Procedure: as §1, §2, §5

[8] = Histopathological and macroscopic analyses of livers, kidneys and spleens; format: in vivo, Swiss mice; details: 25 mg/kg/day i.p., 7 days
Procedure: After being weighed and fixed in 10% formaldehyde; tumors, livers, spleens, and kidneys were submitted for assessment macroscopic (size, coloration and hemorrhage), were cut into small pieces and, after that dehydrated in alcohol, diaphanized in xylene and paraffin-embedded. Subsequently, 5-µm-thick histological sections were obtained and stained with hematoxylin and eosin. Histological analyses were performed by light microscopy in order to assess possible damage caused by treatment.

O=c1[nH]cc(F)c(=O)[nH]1 [5-FU, 5-fluorouracil, reference compound]
tumor growth inhibition rate [1]: 68.1% | mean tumor mass ([1]; 24 h after last treatment, NC 1.18 ± 0.07 g): 0.36 ± 0.02 g | Kidney [2]: 1.13 ± 0.03 g/100 g Body Mass | Liver [2]: 4.65 ± 0.21 g/100 g Body Mass | Spleen [2]: 0.19 ± 0.02 g/100 g Body Mass | Variation Body in Mass [2]: -3.50 ± 0.66 g | Kidney [3]: 1.15 ± 0.04 g/100 g Body Mass | Liver [3]: 4.99 ± 0.16 g/100 g Body Mass | Spleen [3]: 0.33 ± 0.02 g/100 g Body Mass | Variation Body in Mass [3]: -4.46 ± 0.83 g | ALT [4]: 47.25 ± 2.8 U/L | AST [4]: 102.0 ± 15.06 U/L | Creatinine [4]: 0.37 ± 0.02 mg/dL | Urea [4]: 49.00 ± 5.86 mg/dL | ALT [5]: 42.8 ± 0.6 U/L | AST [5]: 164.4 ± 10.0 U/L | Creatinine [5]: 0.28 ± 0.09 mg/dL | Urea [5]: 50.71 ± 2.18 mg/dL | Differential Count of Leukocytes, Eosinophil [6]: 0% | Differential Count of Leukocytes, Lymphocyte [6]: 95.8 ± 0.70 % | Differential Count of Leukocytes, Monocyte [6]: 1.2 ± 0.70% | Differential Count of Leukocytes, Neutrophil [6]: 3.0 ± 0.70 % | Total Leukocytes [6]: 2.37 ± 0.77 * 10^3 Cells/µL | Differential Count of Leukocytes, Eosinophil [7]: 0% | Differential Count of Leukocytes, Lymphocyte [7]: 89.0 ± 0.70 % | Differential Count of Leukocytes, Monocyte [7]: 0.8 ± 0.37% | Differential Count of Leukocytes, Neutrophil [7]: 10.2 ± 0.54 % | Total Leukocytes [7]: 2.50 ± 0.32 ^# 10^3 Cells/µL | macroscopic observation of the spleens [8]: Visible atrophy
